How the values were obtained:
[1] = target: Cyclin-dependent kinase 1 (Homo sapiens, UniProt P06493)
Description: Inhibitory activity against human cyclin-dependent kinase 1 (CDK1)

[2] = target: Cyclin-dependent kinase 2 (Homo sapiens, UniProt P24941)
Description: Inhibitory activity against human cyclin-dependent kinase 2 (CDK2)

Sequence of Cyclin-dependent kinase 1 (P06493 whole entry): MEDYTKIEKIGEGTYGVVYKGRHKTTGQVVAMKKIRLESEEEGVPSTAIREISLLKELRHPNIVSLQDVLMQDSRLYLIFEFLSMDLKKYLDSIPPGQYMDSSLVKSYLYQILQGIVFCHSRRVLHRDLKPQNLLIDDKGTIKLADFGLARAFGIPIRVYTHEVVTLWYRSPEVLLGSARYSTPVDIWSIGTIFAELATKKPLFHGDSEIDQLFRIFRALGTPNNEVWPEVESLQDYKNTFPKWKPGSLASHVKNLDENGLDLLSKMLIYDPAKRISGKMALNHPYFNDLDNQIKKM

| Structure (SMILES) | IC50 [1] | IC50 [2] |
| --- | --- | --- |
| CNS(=O)(=O)c1ccc(N/C=C2\C(=O)Nc3ccccc32)cc1 | 2900 nM |  |
| CNS(=O)(=O)Cc1ccc(NN=C2C(=O)Nc3ccc4ncsc4c32)cc1 | 56 nM |  |
| O=C1Nc2ccc(-c3cnco3)cc2/C1=C/Nc1ccc2c(c1)CS(=O)(=O)C2 | 19 nM | 8.9 nM |
| O=C1Nc2ccccc2/C1=C/Nc1ccc(S(=O)(=O)Nc2nccs2)cc1 | 3800 nM |  |
| O=C1Nc2ccc3ncsc3c2/C1=C/Nc1ccc(S(=O)(=O)Nc2ccccn2)cc1 | 100 nM |  |
| NS(=O)(=O)c1ccc(NN=C2C(=O)Nc3cccc(CCc4ccncc4)c32)cc1 | 290 nM | 21 nM |
| O=C1Nc2ccc3ncsc3c2/C1=C/Nc1ccc(S(=O)(=O)NCc2ccccc2)cc1 | 52 nM | 5.6 nM |
| CC(=O)NS(=O)(=O)c1ccc(N/C=C2\C(=O)Nc3ccc4ncsc4c32)cc1 | 910 nM | 75 nM |
| O=C1Nc2ccc3ncsc3c2/C1=C/Nc1ccc(S(=O)(=O)Nc2ccccc2)cc1 | 41 nM | 4.3 nM |
| CNS(=O)(=O)c1ccc(N/C=C2\C(=O)Nc3ccc4ncsc4c32)cc1 | 64 nM | 5.6 nM |
| O=C1Nc2ccc3ncsc3c2/C1=C/Nc1ccc(S(=O)(=O)NCCO)cc1 | 41 nM | 4.7 nM |
| CN(C)S(=O)(=O)c1ccc(N/C=C2\C(=O)Nc3ccc4ncsc4c32)cc1 | 50 nM | 4.6 nM |
| CN(C)CCNS(=O)(=O)c1ccc(N/C=C2\C(=O)Nc3ccccc32)cc1 | 5500 nM | 1000 nM |
| COCCOCCOCCOCCN(C)S(=O)(=O)c1ccc(N/C=C2\C(=O)Nc3ccc4ncsc4c32)cc1 | 45 nM | 1 nM |
| COCCOCCOCCOCCNS(=O)(=O)c1ccc(N/C=C2\C(=O)Nc3ccc4ncsc4c32)cc1 | 72 nM | 4.5 nM |
| O=C1Nc2ccc3ncsc3c2/C1=C/Nc1ccc(S(=O)(=O)NCCc2c[nH]cn2)cc1 | 38 nM | 3.6 nM |
| Cc1cccc(C)c1NS(=O)(=O)c1ccc(N/C=C2\C(=O)Nc3ccc4ncsc4c32)cc1 | 14000 nM | 281 nM |
| CN(c1ccccn1)S(=O)(=O)c1ccc(N/C=C2\C(=O)Nc3ccc4ncsc4c32)cc1 | 64 nM | 5.6 nM |
| N=C(N)NS(=O)(=O)c1ccc(N/C=C2\C(=O)Nc3ccc4ncsc4c32)cc1 | 45 nM | 3.3 nM |
| CNS(=O)(=O)Cc1ccc(N/C=C2\C(=O)Nc3ccc4ncsc4c32)cc1 | 170 nM | 26 nM |
| NS(=O)(=O)Cc1ccc(N/C=C2\C(=O)Nc3ccc4ncsc4c32)cc1 | 100 nM | 7.5 nM |

| Structure (SMILES) | IC50 [1] | IC50 [2] |
| --- | --- | --- |
| O=C1Nc2ccc3ncsc3c2/C1=C/Nc1ccc(CS(=O)(=O)NCCO)cc1 | 200 nM | 13 nM |
| O=C1Nc2ccc3ncsc3c2/C1=C/Nc1ccc(S(=O)(=O)NCCOCCO)cc1 | 12 nM | 0.54 nM |
| CS(=O)(=O)c1ccc(N/C=C2\C(=O)Nc3ccc4ncsc4c32)cc1 | 39 nM | 5.7 nM |
| O=C1Nc2ccc3ncsc3c2/C1=C/Nc1ccc(S(=O)(=O)N[n+]2ccc3ccccc3c2)cc1 | 42 nM |  |
| CS(=O)(=O)Cc1ccc(N/C=C2\C(=O)Nc3ccc4ncsc4c32)cc1 | 1200 nM | 50 nM |
| COc1ccc2c(c1)C(=NNc1ccc(S(N)(=O)=O)cc1)C(=O)N2 | 210 nM | 12 nM |
| Cc1cc(C)c2c(c1)/C(=C/Nc1ccc(S(N)(=O)=O)cc1)C(=O)N2 | > 10000 nM | > 10000 nM |
| NS(=O)(=O)c1ccc(N/C=C2\C(=O)Nc3ccccc32)cc1 | 3000 nM | 690 nM |
| NS(=O)(=O)c1ccc(NN=C2C(=O)Nc3ccc4[nH]nc(Cl)c4c32)cc1 | 83 nM | 2.2 nM |
| NS(=O)(=O)c1ccc(N/C=C2\C(=O)Nc3ccc(-c4cnco4)cc32)cc1 | 17 nM | 2.5 nM |
| COc1cccc(OC)c1CNC(=O)c1ccc2c(c1)C(=NNc1ccc(S(N)(=O)=O)cc1)C(=O)N2 | 9.3 nM | 1.7 nM |
| NS(=O)(=O)c1ccc(N/C=C2\C(=O)Nc3cccc(CO)c32)cc1 | 1700 nM | 54 nM |
| CC(C)Oc1cccc2c1C(=NNc1ccc(S(N)(=O)=O)cc1)C(=O)N2 | 41 nM | 3.4 nM |
| CCc1ccc2c(c1)NC(=O)C2=NNc1ccc(S(N)(=O)=O)cc1 | 660 nM | 21 nM |
| NS(=O)(=O)c1ccc(NN=C2C(=O)Nc3cc(Br)ccc32)cc1 | 520 nM | 43 nM |
| CC(C)(C)c1ccc2c(c1)NC(=O)/C2=N\Nc1ccc(S(N)(=O)=O)cc1 | > 10000 nM | > 10000 nM |
| NC(=O)c1cccc2c1C(=NNc1ccc(S(N)(=O)=O)cc1)C(=O)N2 | > 1000 nM | > 1000 nM |
| COc1ccc2c(c1Cl)C(=NNc1ccc(S(N)(=O)=O)cc1)C(=O)N2 | 1700 nM | 54 nM |
| Nc1ccc2c(c1)C(=NNc1ccc(S(N)(=O)=O)cc1)C(=O)N2 | 1400 nM | 74 nM |
| NS(=O)(=O)c1ccc(NN=C2C(=O)Nc3ccc(C(=O)NCc4cccnc4)cc32)cc1 | 51 nM | 2.1 nM |
| NS(=O)(=O)c1ccc(N/N=C2\C(=O)Nc3cccc(/C=C/c4ccc(O)cc4)c32)cc1 | 170 nM |  |

| Structure (SMILES) | IC50 [1] | IC50 [2] |
| --- | --- | --- |
| NS(=O)(=O)c1ccc(NN=C2C(=O)Nc3ccc(S(N)(=O)=O)cc32)cc1 | 170 nM | 43 nM |
| CS(=O)(=O)c1ccc2c(c1)C(=NNc1ccc(S(N)(=O)=O)cc1)C(=O)N2 | 350 nM | 16 nM |
| Cc1c([N+](=O)[O-])ccc2c1C(=NNc1ccc(S(N)(=O)=O)cc1)C(=O)N2 | 87 nM | 4.6 nM |
| NS(=O)(=O)c1ccc(N/C=C2\C(=O)Nc3ccc(C(=O)O)cc32)cc1 | 150 nM | 28 nM |
| NS(=O)(=O)c1ccc(NN=C2C(=O)Nc3cccc(-c4cc[nH]n4)c32)cc1 | 250 nM | 19 nM |
| NS(=O)(=O)c1ccc(NN=C2C(=O)Nc3ccc4[nH]ncc4c32)cc1 | 120 nM | 13 nM |
| NS(=O)(=O)c1ccc(NN=C2C(=O)Nc3cc(Oc4ccccc4)ccc32)cc1 | > 10000 nM | > 10000 nM |
| NS(=O)(=O)c1ccc(NN=C2C(=O)Nc3ccc(I)cc32)cc1 | 95 nM | 11 nM |
| NS(=O)(=O)c1ccc(NN=C2C(=O)Nc3ccc(F)cc32)cc1 | 290 nM | 34 nM |
| NS(=O)(=O)c1ccc(/N=N/c2c(O)[nH]c3cccc(I)c23)cc1 | 110 nM | 4.6 nM |
| NS(=O)(=O)c1ccc(N/N=C2\C(=O)Nc3ccc4ncsc4c32)cc1 | 43 nM | 7.1 nM |
| Cc1cccc2c1NC(=O)/C2=C\Nc1ccc(S(N)(=O)=O)cc1 | > 10000 nM | > 10000 nM |
| CCOC(=O)c1cccc2c1/C(=C/Nc1ccc(S(N)(=O)=O)cc1)C(=O)N2 | 130 nM | 8.9 nM |
| NS(=O)(=O)c1ccc(NN=C2C(=O)Nc3cccc(Oc4ccccc4)c32)cc1 | 290 nM | 13 nM |
| NS(=O)(=O)c1ccc(NN=C2C(=O)Nc3cccc([N+](=O)[O-])c32)cc1 | > 1000 nM | 2400 nM |
| NS(=O)(=O)c1ccc(NN=C2C(=O)Nc3ccc(O)cc32)cc1 | 77 nM | 10 nM |
| COC(=O)c1ccc2c(c1)/C(=C/Nc1ccc(S(N)(=O)=O)cc1)C(=O)N2 | 12 nM | 2.1 nM |
| CN(C)C(=O)c1ccc2c(c1)C(=NNc1ccc(S(N)(=O)=O)cc1)C(=O)N2 | 130 nM | 17 nM |
| NS(=O)(=O)c1ccc(N/C=C2\C(=O)Nc3cc(CO)ccc32)cc1 | 740 nM | 61 nM |
| Cc1cc(Cl)cc2c1NC(=O)/C2=C\Nc1ccc(S(N)(=O)=O)cc1 | > 10000 nM | > 10000 nM |
| NC(=O)c1ccc2c(c1)C(=NNc1ccc(S(N)(=O)=O)cc1)C(=O)N2 | 2.8 nM | 4.5 nM |

| Structure (SMILES) | IC50 [1] | IC50 [2] |
| --- | --- | --- |
| CC(C)Cc1cccc2c1C(=NNc1ccc(S(N)(=O)=O)cc1)C(=O)N2 | 19 nM | 1.2 nM |
| CCc1cccc2c1C(=NNc1ccc(S(N)(=O)=O)cc1)C(=O)N2 | 46 nM | 7.9 nM |
| CC(C)c1cccc2c1C(=NNc1ccc(S(N)(=O)=O)cc1)C(=O)N2 | 37 nM | 2.5 nM |
| Cc1ccc2c(c1Cl)C(=NNc1ccc(S(N)(=O)=O)cc1)C(=O)N2 | 250 nM | 13 nM |
| CCOc1cccc2c1C(=NNc1ccc(S(N)(=O)=O)cc1)C(=O)N2 | 550 nM | 93 nM |
| NS(=O)(=O)c1ccc(NN=C2C(=O)Nc3ccc([N+](=O)[O-])cc32)cc1 | 710 nM | 15 nM |
| C/C(Nc1ccc(S(N)(=O)=O)cc1)=C1/C(=O)Nc2ccc(-c3cnco3)cc21 | 7.1 nM | 2 nM |
| NS(=O)(=O)c1ccc(NN=C2C(=O)Nc3ccc(S(=O)(=O)O)cc32)cc1 | 130 nM | 15 nM |
| C/C(Nc1ccc(S(N)(=O)=O)cc1)=C1/C(=O)Nc2ccc(Cl)cc21 | 220 nM | 22 nM |
| CC(C)CC(=O)c1ccc2c(c1)/C(=C/Nc1ccc(S(N)(=O)=O)cc1)C(=O)N2 | 16 nM | 1.9 nM |
| NS(=O)(=O)c1ccc(N/N=C2\C(=O)Nc3ccccc32)cc1 | 1300 nM | 120 nM |
| NS(=O)(=O)c1ccc(N/C=C2\C(=O)Nc3ccc4ncccc4c32)cc1 | 15 nM | 1.5 nM |
| Cc1ccc2c(c1)C(=NNc1ccc(S(N)(=O)=O)cc1)C(=O)N2 [GW275944X] | 330 nM | 46 nM |
| NS(=O)(=O)c1ccc(N/N=C2\C(=O)Nc3ccc(-c4cnco4)cc32)cc1 [GW276655X] | 10 nM | 2.3 nM |
| NS(=O)(=O)c1ccc(N/N=C2\C(=O)Nc3ccc(Cl)cc32)cc1 [GW280670X] | 300 nM | 43 nM |
| NS(=O)(=O)c1ccc(NN=C2C(=O)Nc3ccc(C(=O)NCCCn4ccnc4)cc32)cc1 [GW290597X] | 230 nM | 25 nM |
| CC(C)c1ccc2c(c1)NC(=O)/C2=N/Nc1ccc(S(N)(=O)=O)cc1 [GW300653X] | 790 nM | 75 nM |
| NS(=O)(=O)c1ccc(NN=C2C(=O)Nc3ccc(C(=O)NCc4ccncc4)cc32)cc1 [GW300657X] | 74 nM | 8.9 nM |
